The source of these data is patent US9018168B2, “Therapeutic method for treating congestive heart failure” (Madeleine Pharmaceuticals Pty Ltd, priority 2010, dated 2015).

Like-named read-outs stand apart in the source and are kept apart here. No end group written: not given here. Some results are limits rather than exact numbers.

By Tmax is commonly meant the time from dosing to the highest level. Usually Cmax stands for the maximum level reached in the sampled fluid or tissue.

The conditions of data set [1]: cited from earlier work.
Data set [2] can be described thus: Example 2: estimation of baseline and Cmax for VSDL following infusion (blood samples, mass spectroscopy). The format is in vivo, human. The note with it: for half-life: read-out: estimated half-life (t1/2). From the text: Following the surprising finding that beneficial effects for the treatment of chronic CHF can be achieved with doses that are much less than that which had been proposed, a study was undertaken to estimate the baseline levels of VSDL and Cmax (ie the peak VSDL concentration that is achieved) following infusion.
The baseline VSDL concentration (ie endogenous level) was estimated from an identical sample taken prior to infusion (ie “predose”).

A short description of data set [3]: Expected increase in total circulating VSDL at originally selected doses. The format is in vivo, human. On the procedure: Since it was thought that subjects suffering significant CHF are unable to produce adequate endogenous amounts of natriuretic peptides to compensate for congestion, the present applicant had selected doses of exogenous VSDL infusion of 50 ng/kg/min, 100 ng/kg/min and 200 ng/kg/min for 60 minutes to ascertain the approximate amounts of exogenous VSDL required by late NHYA class III—NYHA class IV patients to reinstate homeostasis. Such doses were expected to result in an approximately 2-fold, 4-fold and 8-fold increase in total circulating VSDL, respectively. Further, the present applicant had particularly proposed an exogenous dose of VSDL at <100 ng/kg/min (for 60 mins) for the treatment of chronic CHF or ADCHF as a safe and effective dosage, since it has been identified that the release rate from the heart of VSDL with physiological stimuli is about 138 ng/kg body weight per minute^16 and similar dosages have been previously observed to cause a marked natriuresis and diuresis in healthy humans^17, 18 and, also, improved haemodynamic and renal parameters in persons with stable NYHA class III chronic CHF^10. The molar equivalent of the 100 ng/kg body weight dose (for 60 mins) is 26 pmol/kg body weight (for 60 mins). […] In particular, at 12.5 ng/kg/min (for 60 mins) and 25 ng/kg/min (for 60 mins). […]

For data set [4], the system named is patients with chronic, but stable, New York Heart Association (NYHA) Class III CHF. The settings on record: cited from earlier work.
Data set [5] has as its system subjects with chronic CHF or ADCHF (NYHA class III - NYHA class IV). The data set is described as follows: Example 1: treatment of ADCHF with iv administration of vessel dilator. It counts as in vivo, human. From the text:
This example describes a study to examine whether VSDL administration to ADCHF patients will be safe and induce improvements in haemodynamic parameters, as well as renal, natriuretic and diuretic parameters, whilst regulating plasma volume and BP within clinically acceptable ranges and without seriously adverse side effects.
VSDL in the form of a white lyophilised powder (synthesised using standard protein synthesis method by Auspep Pty Ltd, Parkville, VIC, Australia), stored in an ultra low freezer (−80° C.), was reconstituted in a vial with 10 ml of 0.9% saline (preservative free) and aseptically transferred into a 20 ml syringe (that connects to a patient cannula) before use.
Initially, an iv dose of 12.5 ng/kg/min was infused into test subjects for 60 minutes with a syringe driver (Alaris Asena GS syringe driver; C are Fusion Corporation, San Diego, Calif., United States of America). This “safety dose” was chosen merely to trial the subjects for any adverse effects. Subsequently, a dose of 25 ng/kg/min (as infused for 60 minutes) was trialled. Additionally, a trial will be conducted with a dose of 50 ng/kg/min (for 60 minutes).
Test adult subjects, both male and female, showing either acute exacerbations of chronic CHF or ADCHF (ie in individuals who had not previously shown heart failure), were recruited for the study. The following inclusion and exclusion criteria were applied:
In order to be eligible, a subject must have chronic CHF or ADCHF (NYHA class III—NYHA class IV) defined as: • 1. Showing dyspnoea at rest or dyspnoea with minimal activity (ie difficulty breathing at rest while sitting, or difficulty breathing while lying flat or with one pillow, or difficulty breathing with minimal activity such as talking, eating); AND • 2. Showing at least one of the following signs: • Tachypnoea with respiratory rate >20 breaths per minute, OR • Pulmonary congestion/oedema with rales or crackles/crepitations at least a third above lung bases; AND • 3. At least one of the following objective measures: • Showing, by chest X-ray, pulmonary oedema/congestions OR • Circulating B-type natriuretic peptide (BNP) concentration of ≧400 pg/ml or circulating NT-proBNP concentration of ≧1000 pg/ml at presentation, OR • PCWP >20 mmHg OR • Showing systolic dysfunction within the last 12 months (EF<50%) as determined by TTE, nuclear testing, cardiac MRI or ventricular angiography); and be: • 4. Male and/or female, 18 years or older; and • 5. If a woman of child bearing potential, testing negative to 13-hCG. Exclusion Criteria: • 1. Evidence in the ED for Myocardial Infarction (MI) or high risk acute coronary syndrome within past 6 weeks, as determined by creatinine kinase (CK)/creatinine kinase muscle-brain isoenzyme (CK-MB) ≧2 times upper limit of normal or elevation of Troponin T at baseline >0.1 or as determined by Trans-Thoracic […] (TTE); • 2. Hypotension (SBP <90 mmHg), cardiogenic shock, volume depletion; • 3. Persistent, uncontrolled hypertension (SBP >180 mm Hg); • 4. Subjects with the presence of any CMR contra-indication (including PPM, cerebral aneurysm clips or non-MM approved metallic implant) are excluded from any MRI study component only; • 5. Congenital heart defects (including Ventricular Septal Defect, Atrial Septal Defect, Patent Ductus Arteriosus, Tetralogy of Fallot, and Tricuspid Atresia); • 6. Cardiac surgery within past 4 weeks; • 7. Diastolic heart failure (preserved left ventricular function—determined by known history, ie E:E prime ratio>15); • 8. Severe valvular heart disease: Aortic Stenosis <1.0 cm^2, any Idiopathic hypertrophic subaortic stenosis or Hypertrophic Obstructive Cardiomyopathy, acute Aortic Regurgitation grade 3 or 4 and Mitral Regurgitation grade 3 or 4; • 9. History of cerebrovascular accident (within past 4 weeks) as determined by MM or Computerised Tomography (CT) Scan; • 10. […]

The mark [6] stands for this setting: 25 ng/kg/min iv for 60 mins, 24 hrs post-infusion.
The mark [7] stands for this setting: 25 ng/kg/min iv for 60 mins, Baseline.
Where [8] appears, read: Subject #2, 12.5 ng/kg/min iv for 60 mins.
The mark [9] stands for this setting: Subject #3, 12.5 ng/kg/min iv for 60 mins.
Where [10] appears, read: one subject, 25 ng/kg/min iv for 60 mins.

On to “B-type natriuretic peptide [BNP, reference compound]”, for which, in data set [1] (in vivo), the “biological t1/2” value is on record as “< ½” and the “circulatory t1/2” value is ~3.1 min.

For “EVVPPQVLSEPNEEAGAALSPLPEVPPWTGEVSPAQR [VSDL]”, the “Corrected Concentration” value was 4.376 ng/mL in data set [2] (0.5 hrs following infusion); 4.376 ng/mL in data set [2] (1 hrs following infusion); 1.176 ng/mL in data set [2] (1.5 hrs following infusion); 0.556 ng/mL in data set [2] (2 hrs following infusion); 0.136 ng/mL in data set [2] (3 hrs following infusion); 0.061 ng/mL in data set [2] (4 hrs following infusion). Besides, the “Corrected Concentration” value is 0.022 ng/mL in data set [2] (5 hrs following infusion), 0.005 ng/mL in data set [2] (6 hrs following infusion), 0.018 ng/mL in data set [2] (12 hrs following infusion) and 0.024 ng/mL in data set [2] (Predose). The half-life in data set [2] (human, blood, intravenous, terminal elimination rate using the LOQ of 0.2 ng/ml) is 20 min; in data set [2] (human, blood, intravenous, using the point just below the LOQ, excluding and including the Cmax values), 25 to 30 min. Moreover, the Tmax in data set [2] (human, blood, intravenous, CHF patient (NYHA class III), following infusion) was 30 min. In addition, the level at 0.5 h in data set [2] (human, blood, iv, 0.5 hrs following infusion, read-out: Concentration) is 4.4 ng/mL. In data set [2] (human, blood, iv, 1 hrs following infusion, read-out: Concentration), the level at 1 h is 4.4 ng/mL. Further, the level at 1.5 h in data set [2] (human, blood, iv, 1.5 hrs following infusion, read-out: Concentration) was 1.2 ng/mL. Further, in data set [2] (human, blood, iv, 2 hrs following infusion, read-out: Concentration), the level at 2 h is 0.58 ng/mL. The level at 3 h in data set [2] (human, blood, iv, 3 hrs following infusion, read-out: Concentration) is 0.16 ng/mL. Further, the level at 4 h in data set [2] (human, blood, iv, 4 hrs following infusion, read-out: Concentration) is 0.085 ng/mL. Further, the level at 5 h in data set [2] (human, blood, iv, 5 hrs following infusion, read-out: Concentration) is 0.046 ng/mL. In data set [2] (human, blood, iv, 6 hrs following infusion, read-out: Concentration), the level at 6 h was 0.029 ng/mL. Further, the level at 12 h in data set [2] (human, blood, iv, 12 hrs following infusion, read-out: Concentration) was 0.042 ng/mL. Besides, the Cmax in data set [2] (human, intravenous, CHF patient (NYHA class III), blood, following infusion, baseline-corrected) is 4.38 ng/mL. The “elimination of VSDL from the blood stream” value in data set [2] (measured concentration profile (FIG. 3)) was “does not clearly follow first order kinetics”. Also, the “baseline (endogenous) VSDL concentration” value in data set [2] (predose blood sample, CHF patient (NYHA class III)) is 0.024 ng/mL. Moreover, the “expected increase in total circulating VSDL” value is recorded as ~4 fold in data set [3] (100 ng/kg/min for 60 minutes) and ~8 fold in data set [3] (200 ng/kg/min for 60 minutes). In data set [1] (previously reported), the “biological t1/2” value is listed as > 6 hours. Further, the “circulatory t1/2” value in data set [1] (previously reported) is 120 min. Moreover, the symptomatic side effects result in data set [4] is given as “without any symptomatic side effects”. Besides, the “safety risks seen by reviewers” value in data set [5] (12.5 ng/kg/min iv for 60 mins, three subjects) was “no safety risks”; in data set [5] (setting [10]), “no safety risks”. Further, the CK in data set [5] (setting [6]) was 156 U/L; in data set [5] (setting [7]) it was 188 U/L. The CK-MB in data set [5] (setting [6]) was determined as 1.3 µg/L; in data set [5] (setting [7]) it was 2.0 µg/L. Further, the “Troponin T” value in data set [5] (setting [6]) and in data set [5] (setting [7]) was <0.02 µg/L throughout. Moreover, in data set [5] (setting [8]), the “clinical state during the 24 hours following the infusion” value is reported as “stable during the 24 hours”. Also, the side-effects result in data set [5] (setting [8]) was “global dyskinesis and no side-”. Further, the tolerability of infusion entry in data set [5] (setting [8]) is “infusion was well tolerated by”; in data set [5] (setting [9]) it was “subject tolerated the infusion”; in data set [5] (setting [10]), “well tolerated”. Moreover, the “clinical state during and within 24 hours following the infusion” value in data set [5] (setting [9]) is listed as “clinically stable during this”. In addition, the side effects result in data set [5] (setting [10]) is “no side effects”.
